Values quoted from earlier work as cited in patent US10278390B2, “Antimicrobial transparent plastic in the form of film or extruded shape” (priority 2016, dated 2019).

Test system: bacteria

In the case of `[Ag+]` [silver ions], the “concentrations at which the metabolism of bacteria is adversely affected” value is listed as 0.01 to 0.1 mg/L.
